Results taken from patent EP4741389A1, “KAT6 INHIBITOR” (Shanghai Qilu Pharmaceutical Research and Development …, priority 2023, dated 2025).

Columns and labels:
[1] = system: human breast cancer ZR-75-1 cell xenografts; assay: In vivo efficacy study in BALB/c nude mouse model with subcutaneous ZR-75-1 xenografts; conditions: for T/C / TGI / Tumor Volume: 0.3 mg/kg; for T/C / TGI: based on tumor volume on day 21 post-administration; for Tumor Volume: day 21 post-administration, female BALB/c nude mice, 7 per group; for anti-tumor effects: ZR-75-1 xenograft model, tumor growth curves FIG. 2, result in words
Source text: IV. In vivo efficacy study of test drug Compound 2, Compound 5-P2, Compound 3, and Compound A in a BALB/c nude mouse model with subcutaneously implanted human breast cancer ZR-75-1 cell xenografts
The objective of this experiment is to evaluate the in vivo efficacy of the test drug Compound 2, Compound 5-P2, Compound 3, and Compound A in a BALB/c nude mouse model with subcutaneously implanted human breast cancer ZR-75-1 cell xenografts.
• Species: Mouse; • Strain: BALB/c nude mice; • Age and weight: 6-8 weeks old, weighing 19-26 grams; • Gender: Female; • Supplier: GemPharmatech Co., Ltd.; • Compound source: Compound A: [drawing 190] prepared with reference to patent CN114364672A.
Human breast cancer ZR-75-1 (ATCC, CRL-1500) cells were cultured in vitro as adherent cultures. The culture conditions were: 1640 medium supplemented with 10 vol% FBS, 100 U/mL penicillin, and 100 µg/mL streptomycin, incubated in a 37°C, 5% CO2 cell culture incubator. Routine passaging was performed twice a week. When cell confluence reached 80%-90% and the cell number met the requirements, cells were harvested, counted, and inoculated.
Three days before cell implantation, a 17β-estrogen pellet (0.36 mg) was implanted into the left dorsal side of each mouse. Starting one week after pellet implantation, animals were urinated 2-3 times per week. If necessary, animals were urinated daily.
A mixture containing 10×10^6 ZR-75-1 cells in 100 µL PBS and 100 µL Matrigel (final volume was 200 µL) was subcutaneously implanted into the right dorsal side (upper side) of each mouse. On day 18 after cell implantation, when the average tumor volume reached 138 mm^3, grouping and administration were initiated. Mice with tumor volumes ranging from 100 to 212 mm^3 were selected for the study. Mice were randomly assigned to groups based on body weight and tumor volume, with 7 mice per group. The day of grouping was designated as PG-D0, and administration for all groups started from PG-D0.
The experimental index is to investigate whether tumor growth is inhibited, delayed, or cured. Tumor diameters were measured three times per week using a vernier caliper. Tumor volume was calculated using the formula: V = 0.5a × b^2, where a and b represent the major and minor diameters of the tumor, respectively.
The anti-tumor efficacy of the compounds was evaluated using TGI (%) or the relative tumor proliferation rate T/C (%). TGI (%), reflects the tumor growth inhibition rate. TGI (%) was calculated as: TGI (%) = [1 - (Mean tumor volume of a treatment group at the end of administration - Mean tumor volume of the same treatment group at the start of administration) / (Mean tumor volume of the vehicle control group at the end of treatment - Mean tumor volume of the vehicle control group at the start of treatment)] × 100%.
Relative Tumor Proliferation Rate T/C (%): The calculation formula is as follows: T/C% = TRTV / CRTV ×100 % (TRTV: RTV of the treatment group; CRTV: RTV of the negative control group). The relative tumor volume (RTV) was calculated based on tumor measurement results using the formula RTV = Vt /V0, where V0 is the tumor volume of each mouse measured at the start of grouping and administration (i.e., d0), and Vt is the tumor volume of each mouse at a specific measurement time. The mean value for each group was then calculated. V0 and Vt correspond to tumor volume data from the same mouse.

[2] = system: ZR-75-1 H3K23 Acetylation; assay: Histone H3 acetylation assay (H3K23 acetylation in ZR-75-1 cells); type: cell-based; conditions: Homo sapiens, 72 hours incubation, Odyssey CLx fluorescence, read-out: ZR-75-1 H3K23 Acetylation Inhibition IC50
Summary of the method: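 ZR-75-1 cells exposed to serially diluted compounds for 72 h at 37°C, then fixed with 4 w/v% paraformaldehyde, methanol-permeabilized and immunostained for acetyl-H3K23 and total histone H4. Fluorescent secondary antibody signals quantified by imaging; IC50 from four-parameter logistic nonlinear regression.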

[3] = target: T1, KAT6A (Homo sapiens, UniProt Q92794); assay: KATs acetyltransferase enzyme activity assay (TR-FRET), KAT6A; type: biochemical; conditions: Biotin-H3 (1-21) and AcCOA, 90 minutes at room temperature
T1 construct: purchased Active Motif 81223
T1 sequence (Q92794 488-778 limits assumed): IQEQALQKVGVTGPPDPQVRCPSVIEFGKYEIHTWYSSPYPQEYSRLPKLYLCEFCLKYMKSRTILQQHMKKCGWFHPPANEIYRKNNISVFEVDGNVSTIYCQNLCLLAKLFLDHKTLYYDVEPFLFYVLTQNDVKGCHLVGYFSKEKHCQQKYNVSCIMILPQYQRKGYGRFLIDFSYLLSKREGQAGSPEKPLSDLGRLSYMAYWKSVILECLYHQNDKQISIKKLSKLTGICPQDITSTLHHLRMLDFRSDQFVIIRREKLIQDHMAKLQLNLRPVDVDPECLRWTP

Compound	T/C [1]	TGI [1]	Tumor Volume [1]	anti-tumor effects [1]	IC50 [2]	IC50 [3]
COc1ccc2c(c1S(=O)(=O)Nc1noc3cc(Cn4cccn4)cc(OC)c13)OCCCO2 [Compound 2, N-(6-((1H-Pyrazol-1-yl)methyl)-4-methoxybenzo[d]isoxazol-3-yl)-7-methoxy-3,4-dihyd ro-2H-benzo[b][1,4]dioxepine-6-sulfonamide]	20.83%	93.97%	182 ± 39 mm^3	more significant anti-tumor effects compared to Compound A	5.1 nM	3.2 nM
COc1ccc2c(c1S(=O)(=O)Nc1noc3cc(Cn4cccn4)cc(OC)c13)OC[C@@H]1C[C@H]21 [Compound 5-P2, (1aR,7bS)-N-(6-((1H-Pyrazol-1-yl)methyl)-4-methoxybenzo[d]isoxazol-3-yl)-5-methoxy-1,1a,2,7b-tetrahydrocyclopropa[c]chromene-4-sulfonamide]	12.10%	105.10%	102 ± 14 mm^3	more significant anti-tumor effects compared to Compound A	0.5 nM	1.1 nM
